In US20060116390A1, “Hepatitis c virus inhibitors” (priority 2003, published 2006):
Where two headings read alike, the source gives them in different places.

System: HCV proteins in Rep5.1 cells (replicon cell line)
Assay: Inhibitory activity of HCV: cell-based ELISA in replicon cell line Rep5.1 (decrease of HCV proteins)
Design: species or system hepatitis C virus
Settings: Rep5.1 cells, 72 hours with drug
How it was run: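 Rep5.1 replicon cells (5000/well, DMEM-10 with 500 μg/ml G418) were given serially diluted drug 4 h after seeding. After 72 h, cells were fixed in methanol/acetone and HCV proteins detected by cell-based ELISA using replicon-specific patient plasma antibodies. IC50 is the concentration giving 50% protein decrease versus the no-drug control.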

[1] = Hepatitis C virus, 72 h, concentration at which 50% of HCV proteins was decreased, Table 2, read-out: IC50
[2] = Hepatitis C virus, 72 h, decrease of HCV proteins measured by HCV antibody, Table 1, read-out: Level (IC50 values classified)
[3] = concentration at which 50% of HCV proteins was decreased, Table 2, read-out: IC50

| SMILES | IC50 [1] | IC50 [2] | IC50 [3] |
| --- | --- | --- | --- |
| CC1=C(C(=O)OCCc2ccsc2)C(CO)NC(=S)N1 (stereo not drawn) [3″, 4-hydroxymethyl-6-methyl-2-thioxo-1,2,3,4-tetrahydro-pyrimidine-5-carboxylic acid 2-thiophen-3-yl-ethyl ester] | 9000 nM | 1000 to 10000 nM | – |
| CC1=C(C(=O)OCc2ccccc2S(=O)(=O)CC(C)C)CNC(=S)N1 [Compound 113, 6-methyl-2-thioxo-1,2,3,4-tetrahydro-pyrimidine-5-carboxylic acid 2-(2-methyl-propane-1-sulfonyl)-benzyl ester] | > 100000 nM | > 20000 nM | – |
| CC1=C(C(=O)OCCc2cccc(Cl)c2)C(COC(=O)OCCS(C)(=O)=O)NC(=S)N1 (stereo not drawn) [84″, 4-(2-methanesulfonyl-ethoxycarbonyloxymethyl)-6-methyl-2-thioxo-1,2,3,4-tetrahydro-pyrimidine-5-carboxylic acid 2-(3-chloro-phenyl)-ethyl ester] | 900 nM | < 1000 nM | – |
| CCc1ccc(CCOC(=O)C2=C(C)NC(=S)NC2)o1 [22′, 6-methyl-2-thioxo-1,2,3,4-tetrahydro-pyrimidine-5-carboxylic acid 2-(5-ethyl-furan-2-yl)-ethyl ester] | < 400 nM | < 1000 nM | – |
| CCc1ccc(COC(=O)C2=C(C)NC(=S)NC2)s1 [Compound 205, 6-methyl-2-thioxo-1,2,3,4-tetrahydro-pyrimidine-5-carboxylic acid 5-ethyl-thiophen-2-ylmethyl ester] | 1800 nM | 1000 to 10000 nM | – |
| C=CCOC(=O)C1=C(C)NC(=S)NC1 [Compound 16, 6-methyl-2-thioxo-1,2,3,4-tetrahydro-pyrimidine-5-carboxylic acid allyl ester] | 74000 nM | > 20000 nM | – |
| CC1=C(C(=O)OCCc2cc3c(C)snc3s2)CNC(=S)N1 [5′, 6-methyl-2-thioxo-1,2,3,4-tetrahydro-pyrimidine-5-carboxylic acid 2-(3-methyl-thieno[2,3-c]isothiazol-5-yl)-ethyl ester] | 2500 nM | 1000 to 10000 nM | – |
| CC(=O)OCC1NC(=S)NC(C)=C1C(=O)OCCCCc1ccsc1 (stereo not drawn) [26″, 4-acetoxymethyl-6-methyl-2-thioxo-1,2,3,4-tetrahydro-pyrimidine-5-carboxylic acid 4-thiophen-3-yl-butyl ester] | 2000 nM | 1000 to 10000 nM | – |
| O=C(O)CCCC1=C(C(=O)OCc2ccccc2)CNC(=S)N1 [Compound 170, 6-(3-carboxy-propyl)-2-thioxo-1,2,3,4-tetrahydro-pyrimidine-5-carboxylic acid benzyl ester] | 90000 nM | > 20000 nM | – |
| COc1ccc(Cl)cc1COC(=O)C1=C(C)NC(=S)NC1 [Compound 132, 6-methyl-2-thioxo-1,2,3,4-tetrahydro-pyrimidine-5-carboxylic acid 5-chloro-2-methoxy-benzyl ester] | 400 nM | < 1000 nM | – |
| CC1=C(C(=O)OCc2nc3ccccc3o2)CNC(=S)N1 [Compound 238, 6-methyl-2-thioxo-1,2,3,4-tetrahydro-pyrimidine-5-carboxylic acid benzoxazol-2-ylmethyl ester] | 3000 nM | 1000 to 10000 nM | – |
| CC1=C(C(=O)OCCC[S+]([O-])c2nc3ccccc3o2)C(CF)NC(=S)N1 (stereo not drawn) [49′, 4-fluoromethyl-6-methyl-2-thioxo-1,2,3,4-tetrahydro-pyrimidine-5-carboxylic acid 3-(benzoxazol-2-ylsulfinyl)-propyl ester] | 8000 nM | 1000 to 10000 nM | – |
| CC1=C(C(=O)OCCc2cc(Cl)ccc2[N+](=O)[O-])C(CO)NC(=S)N1 (stereo not drawn) [54″, 4-hydroxymethyl-6-methyl-2-thioxo-1,2,3,4-tetrahydro-pyrimidine-5-carboxylic acid 2-(5-chloro-2-nitro-phenyl)-ethyl ester] | 8000 nM | 1000 to 10000 nM | – |
| CC1=C(C(=O)OCCCc2ccccc2)C(CO)NC(=S)N1 (stereo not drawn) [14″, 4-hydroxymethyl-6-methyl-2-thioxo-1,2,3,4-tetrahydro-pyrimidine-5-carboxylic acid 3-phenyl-propyl ester] | 2600 nM | 1000 to 10000 nM | – |
| CC1=C(C(=O)OCc2ccc3nc(C)oc3c2)CNC(=S)N1 [Compound 256, 6-methyl-2-thioxo-1,2,3,4-tetrahydro-pyrimidine-5-carboxylic acid 2-methyl-benzoxazol-6-ylmethyl ester] | 3400 nM | 1000 to 10000 nM | – |
| C#CC(C)OCC#CCOC(=O)C1=C(C)NC(=S)NC1 (stereo not drawn) [Compound 246, 6-methyl-2-thioxo-1,2,3,4-tetrahydro-pyrimidine-5-carboxylic acid 4-(1-methyl-prop-2-inyloxy)-but-2-inyl ester] | – | – | 68000 nM |
| CC1=C(C(=O)OC(C)Cc2ccsc2Br)C(CO)NC(=S)N1 (stereo not drawn) [7″, 4-hydroxymethyl-6-methyl-2-thioxo-1,2,3,4-tetrahydro-pyrimidine-5-carboxylic acid 2-(2-bromo-thiophen-3-yl)-1-methyl-ethyl ester] | 7000 nM | 1000 to 10000 nM | – |

| SMILES | IC50 [1] | IC50 [2] | IC50 [3] |
| --- | --- | --- | --- |
| CCOc1ccccc1CCOC(=O)C1=C(C)NC(=S)NC1CO (stereo not drawn) [11″, 4-hydroxymethyl-6-methyl-2-thioxo-1,2,3,4-tetrahydro-pyrimidine-5-carboxylic acid 2-(2-ethoxy-phenyl)-ethyl ester] | 6000 nM | 1000 to 10000 nM | – |
| COCC#CCOC(=O)C1=C(C)NC(=S)NC1 [Compound 215, 6-methyl-2-thioxo-1,2,3,4-tetrahydro-pyrimidine-5-carboxylic acid 4-methoxy-but-2-inyl ester] | – | – | 11000 nM |
| CCOc1ccccc1CCOC(=O)C1=C(C)NC(=S)NC1CF (stereo not drawn) [Compound 274, 4-fluoromethyl-6-methyl-2-thioxo-1,2,3,4-tetrahydro-pyrimidine-5-carboxylic acid 2-(2-ethoxy-phenyl)-ethyl ester] | > 100000 nM | > 20000 nM | – |
| CC1=C(C(=O)OCC2CCCO2)CNC(=S)N1 (stereo not drawn) [Compound 161, 6-methyl-2-thioxo-1,2,3,4-tetrahydro-pyrimidine-5-carboxylic acid tetrahydrofuran-2-ylmethyl ester] | > 100000 nM | > 20000 nM | – |
| COc1ccc(CCOC(=O)C2=C(C)NC(=S)NC2CO)cc1C (stereo not drawn) [69″, 4-hydroxymethyl-6-methyl-2-thioxo-1,2,3,4-tetrahydro-pyrimidine-5-carboxylic acid 2-(4-methoxy-3-methyl-phenyl)-ethyl ester] | 800 nM | < 1000 nM | – |
| O=C(OCCc1ccsc1)C1=CNC(=S)NC1CF (stereo not drawn) [Compound 271, 4-fluoromethyl-2-thioxo-1,2,3,4-tetrahydro-pyrimidine-5-carboxylic acid 2-thiophen-3-yl-ethyl ester] | 9000 nM | 1000 to 10000 nM | – |
| COc1cscc1CCOC(=O)C1=C(C)NC(=S)NC1 [40′, 6-methyl-2-thioxo-1,2,3,4-tetrahydro-pyrimidine-5-carboxylic acid 2-(4-methoxy-thiophen-3-yl)-ethyl ester] | 600 nM | < 1000 nM | – |
| CC1=C(C(=O)OCc2ccc(F)cc2Cl)C(CO)NC(=S)N1 (stereo not drawn) [48″, 4-hydroxymethyl-6-methyl-2-thioxo-1,2,3,4-tetrahydro-pyrimidine-5-carboxylic acid 2-chloro-4-fluoro-benzyl ester] | 43000 nM | > 20000 nM | – |
| CC1=C(C(=O)OCc2cc(F)cc(F)c2)CNC(=S)N1 [Compound 134, 6-methyl-2-thioxo-1,2,3,4-tetrahydro-pyrimidine-5-carboxylic acid 3,5-difluoro-benzyl ester] | 600 nM | < 1000 nM | – |
| CC1=C(C(=O)OCCc2cccc(Cl)c2)C(CO)NC(=S)N1 (stereo not drawn) [31″, 4-hydroxymethyl-6-methyl-2-thioxo-1,2,3,4-tetrahydro-pyrimidine-5-carboxylic acid 2-(3-chloro-phenyl)-ethyl ester] | 1000 nM | < 1000 nM | – |
| CC1=C(C(=O)OCC=Cc2ccsc2)CNC(=S)N1 [Compound 244, 6-methyl-2-thioxo-1,2,3,4-tetrahydro-pyrimidine-5-carboxylic acid 3-thiophen-3-yl-allyl ester] | 500 nM | < 1000 nM | – |
| O=C(OCc1ccccc1)C1=C(C(F)(F)F)NC(=S)NC1 [Compound 146, 2-thioxo-6-trifluoromethyl-1,2,3,4-tetrahydro-pyrimidine-5-carboxylic acid benzyl ester] | > 100000 nM | > 20000 nM | – |
| CC1=C(C(=O)OCCc2ccccc2Cl)CNC(=S)N1 [Compound 118, 6-methyl-2-thioxo-1,2,3,4-tetrahydro-pyrimidine-5-carboxylic acid 2-(2-chloro-phenyl)-ethyl ester] | < 400 nM | < 1000 nM | – |
| CSc1ccc(COC(=O)C2=C(C)NC(=S)NC2)s1 [Compound 217, 6-methyl-2-thioxo-1,2,3,4-tetrahydro-pyrimidine-5-carboxylic acid 5-methylsulfanyl-thiophen-2-ylmethyl ester] | 7000 nM | 1000 to 10000 nM | – |
| CC1=C(C(=O)OCc2cc(C)cc(C)c2)C(CF)NC(=S)N1 (stereo not drawn) [35′, 4-fluoromethyl-6-methyl-2-thioxo-1,2,3,4-tetrahydro-pyrimidine-5-carboxylic acid 3,5-dimethyl-benzyl ester] | 800 nM | < 1000 nM | – |
| CC1=C(C(=O)OCc2cccc(I)c2)CNC(=S)N1 [Compound 75, 6-methyl-2-thioxo-1,2,3,4-tetrahydro-pyrimidine-5-carboxylic acid 3-iodo-benzyl ester] | < 500 nM | < 1000 nM | – |
| CCCN(c1ccc(CCOC(=O)C2=C(C)NC(=S)NC2CO)cc1[N+](=O)[O-])C1CC1 (stereo not drawn) [95″, 4-Hydroxymethyl-6-methyl-2-thioxo-1,2,3,4-tetrahydro-pyrimidine-5-carboxylic acid 2-[4-(cyclopropyl-propyl-amino)-3-nitro-phenyl]-ethyl ester] | 600 nM | < 1000 nM | – |
